The nature of data set [1]: Cellulose membrane permeability and partitioning between methylene chloride and water, analysed by LC/MS. Conditions: for transport across cellulose membrane from organic to aqueous layer: LC/MS vial covered with cellulose membrane, methylene chloride / water; for solvent preference from relative LC/MS intensities of the two layers: methylene chloride in LC/MS vial, cellulose membrane, immersed in deionized water for twenty-four hours. In kind it is physicochemical. As to the method: One of the key components to this system is the physical separation between the organic chemistry and the biomolecular receptor. As a simple test, starting material was dissolved in methylene chloride at reaction concentration in an LC/MS vial, the vial covered with a cellulose membrane and immersed in glass-distilled, deionized water for twenty-four hours (FIGS. 10A-B). The experiment was analyzed by LC/MS.
Furthermore, enough of the compound is present to detect by LC/MS without having to concentrate the sample.

For the next data set, the system named is trypsin. Description: Dynamic library selection experiment against trypsin in the biphasic vessel (LC-MS of extracted ions). Conditions: 121 compound library, trypsin 43 μM and 257 μM vs trypsin free control, 18 hours incubation; not verified by binding or inhibition constant. The protocol: Selection experiments: 1,4-diacetoxycyclopent-2-ene, methoxyphenylacetic acid, hydrocinnamic acid, isovaleric acid, 4-pentynoic acid, cyclopentane carboxylic acid, cis-pinonic acid, tetrahydro-2-furoic acid, 2 -phenylpropionic acid, 2-cyclopentene-1-acetic acid, (−)-methoxyacetic acid and triethyl phosphite were weighed in 4 mL vials in the open atmosphere. Palladium tetrakistriphenylphosphine was added to the vial containing triethylphosphite under a nitrogen atmosphere inside a glove box. The reagents were diluted with freshly distilled methylene chloride under the nitrogen atmosphere. Stock solutions of 1,4 -diacetoxycyclopent-2-ene (2 M), methoxyphenylacetic acid (1.8 M), hydrocinnamic acid (1.8 M), isovaleric acid (1.8 M), 4-pentynoic acid (1.8 M), cyclopentane carboxylic acid (1.8 M), cis-pinonic acid (1.8 M), tetrahydro-2-furoic acid (1.8 M), 2-phenylpropionic acid (1.8 M), 2-cyclopentene-1-acetic acid (1.8 M), (−)-methoxyacetic acid (1.8 M) and palladium tetrakistriphenylphosphine (90 mM) with triethyl phosphite (360 mM) were prepared. An aliquot (611 μL) was removed from each of the ten acid stock solutions, added to a pear shaped flask, and evaporated to dryness. […]
Organic and aqueous samples were analyzed by electrospray LC-MS in positive ionization mode using an acetonitrile: water 1% trifluoroacetic acid gradient elution (30% CH3CN—90%). […]

On to `CC(=O)OC1C=CC(OC(C)=O)C1` (stereo not drawn) [1,4-diacetoxycyclopent-2-ene], for which, in data set [1], the “transport across cellulose membrane from organic to aqueous layer” value (from here on “transport across cellulose membrane”) is “sufficient ability to undergo membrane transport” and the “solvent preference from relative LC/MS intensities of the two layers” value is recorded as “organic preference”.

With `CC(=O)OC1C=CC(OC(=O)CC2C=CCC2)C1` (stereo not drawn) [1-acetoxy-4-(2-cyclopentene-1-acetoxy)cyclopent-2-ene], the “correlation of amount of compound (ion intensity) with presence of trypsin” value in the data set with trypsin is “strong correlation”.

`COC(C(=O)OC1C=CC(OC(C)=O)C1)c1ccccc1` (stereo not drawn) [1-acetoxy-4-(methoxyphenylacetoxy)cyclopent-2-ene]: in data set [1], the “transport across cellulose membrane” value is on record as “present at thirteen minutes in the aqueous layer”.

Turning to `COC(C(=O)O)c1ccccc1` (stereo not drawn) [methoxyphenylacetic acid], in data set [1], the “transport across cellulose membrane” value is given as “sufficient ability to undergo membrane transport” and the “solvent preference from relative LC/MS intensities of the two layers” value is “aqueous preference”.

These data come from US6599754B2, “Biphasic reaction vessel and methods of use” (University of Rochester, priority 2000, dated 2003).
